Test results as given in PubChem BioAssay AID1648 (Sanford-Burnham Center for Chemical Genomics, 2009).
Calls of active or inactive are those of the source. The rule behind the calls is not given here.

Molecular target: Serine/threonine-protein kinase mTOR (Homo sapiens) (UniProt P42345)
Assay: binders of mTOR FRB domain, biophysical, NMR (AID 1648)
Conditions: NMR binding to FRB domain, chemical shift

Chain of Serine/threonine-protein kinase mTOR (Homo sapiens) (P42345 2015-2114): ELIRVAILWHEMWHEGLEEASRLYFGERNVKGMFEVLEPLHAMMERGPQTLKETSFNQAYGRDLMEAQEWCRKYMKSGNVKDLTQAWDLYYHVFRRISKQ

Row | Structure (SMILES) | Kd
1 | COc1ccccc1-c1nc(=S)[nH][nH]1 | > 4 mM (inactive)
2 | O=C1NC(=O)C(=Cc2cccs2)C(=O)N1 | > 4 mM (inactive)
3 | COc1ccc(/C=C2/SC(N)=NC2=O)c(OC)c1 | > 4 mM (inactive)
4 | COc1ccc([C@H]2COc3c(ccc(O)c3OC)C2)c(OC)c1O | > 4 mM (inactive)
5 | Oc1cc(O)c2c(c1)O[C@H](c1cc(O)c(O)c(O)c1)[C@H](O)C2 | > 4 mM (inactive)
6 | O=C(Nc1ccccc1C(F)(F)F)c1cnccn1 | > 4 mM (inactive)
7 | Cc1cc(=O)n2nc(-c3ccccc3)sc2n1 | > 4 mM (inactive)
8 | COc1ccc2nc(NC(=O)c3cnccn3)sc2c1 | > 4 mM (inactive)
9 | O=C(CSc1ncccn1)NCc1ccco1 | > 4 mM (inactive)
10 | O=C(Nc1nnc(-c2ccco2)o1)C1=COCCO1 | > 4 mM (inactive)
11 | O=C(Nc1cnccn1)c1ccncc1 | > 4 mM (inactive)
12 | FC(F)(F)c1cc(-c2ccco2)nc(N2CCOCC2)n1 | > 4 mM (inactive)
13 | Cc1noc(-c2ccccc2)c1CO | > 4 mM (inactive)
14 | C(=N\c1ncn[nH]1)/c1cccs1 | > 4 mM (inactive)
15 | CC(=O)Nc1sccc1C(=O)NC(N)=O | > 4 mM (inactive)
16 | CC1(C)O[C@H]2[C@H](O)C[C@](O)(C(N)=O)C[C@H]2O1 | > 4 mM (inactive)
17 | CCc1noc(C)c1C(=O)N1CCOCC1 | > 4 mM (inactive)
18 | CC(=O)Nc1ccc2c(c1)CCC2=O | > 4 mM (inactive)
19 | COc1c(C)c2c(c(O)c1C/C=C(\C)CCC(=O)O)C(=O)OC2 | > 4 mM (inactive)
20 | Cc1nc2ccc(F)cc2cc1C(=O)NCc1ccco1 | > 4 mM (inactive)
21 | CCC(=O)OC1[C@@H]2CC3=C4CC(=O)O[C@@H](c5ccoc5)[C@]4(C)CCC3C(C)(C2=O)[C@@H](CC(=O)OC)C1(C)C (stereo partly specified) | > 4 mM (inactive)
22 | COCC(=O)N1CCCc2ccccc21 | > 4 mM (inactive)

Row | Structure (SMILES) | Kd
23 | O=C(NCO)c1ccccc1Cl | > 4 mM (inactive)
24 | Nc1nnc(SCc2ccccc2Cl)s1 | > 4 mM (inactive)
25 | COc1cc(OC)c2c(=O)c(-c3ccccc3)coc2c1 | > 4 mM (inactive)
26 | CC1O[C@@H](Oc2c(-c3ccc(O)c(O)c3)oc3cc(O)cc(O)c3c2=O)[C@H](O)[C@H](O)[C@H]1O (stereo partly specified) | > 4 mM (inactive)
27 | Cc1ccc(NC(=O)C(=O)Nc2ccccn2)cc1 | > 4 mM (inactive)
28 | O=C(O)/C=C/c1ccc(O)c(O)c1 | > 4 mM (inactive)
29 | OCc1c[nH]c2ccccc12 | > 4 mM (inactive)
30 | COc1cc(OC)c2ccc(=O)oc2c1 | > 4 mM (inactive)
31 | COc1ccc(-c2coc3cc(O)ccc3c2=O)c(OC)c1 | > 4 mM (inactive)
32 | O=C1NC(=S)NC(=O)C1=Cc1ccco1 | > 4 mM (inactive)
33 | NCc1csc(-c2ccccc2)n1 | > 4 mM (inactive)
34 | Cc1cc(-c2ccc(Cl)cc2)n2nc(N)nc2n1 | > 4 mM (inactive)
35 | CN1C(=O)C2C=CC1C1C(=O)N(c3ccccc3)C(=O)C21 (stereo unspecified) | > 4 mM (inactive)
36 | NC(=O)CSc1nnc2ccc(-c3ccco3)nn12 | > 4 mM (inactive)
37 | COc1ccccc1NC(=O)c1ccc(C)s1 | > 4 mM (inactive)
38 | O=C(O)CCc1nc2ccccc2[nH]c1=O | > 4 mM (inactive)
39 | CCc1sc(C(=O)NC)cc1Br | > 4 mM (inactive)
40 | Cc1cc(C)n(-c2nncn2N)n1 | > 4 mM (inactive)
41 | Cc1ccc(C)n1NC(=O)c1ccco1 | > 4 mM (inactive)
42 | O=C(NC12CC3CC(CC(C3)C1)C2)c1cnccn1 | > 4 mM (inactive)
43 | Cn1ncc2c(=O)n(CC(=O)c3ccccc3)cnc21 | > 4 mM (inactive)
44 | O=c1ccn(Cc2ccccc2)c(=O)[nH]1 | > 4 mM (inactive)

Row | Structure (SMILES) | Kd
45 | CC1CCN(S(=O)(=O)N(C)C)CC1 | > 4 mM (inactive)
46 | N#Cc1c[nH]n2c(=O)cc(Cc3ccccc3)nc12 | > 4 mM (inactive)
47 | C[C@H](CCC(=O)O)[C@H]1CCC2C3C(CC[C@@]21C)[C@@]1(C)CC[C@@H](O)C[C@H]1C[C@H]3O (stereo partly specified) | > 4 mM (inactive)
48 | CCCCN1C(=O)C2CC/C(=N/O)CC2C1=O (stereo unspecified) | > 4 mM (inactive)
49 | O=C1C[C@@H](c2ccccc2)Oc2cc(O)cc(O)c21 | > 4 mM (inactive)
50 | CCC(=O)NC(=S)Nc1ccc(C(N)=O)cc1 | > 4 mM (inactive)
51 | C/C=C/C=N/NC(=O)c1ccc(=O)n(C)c1 | > 4 mM (inactive)
52 | NCCC(=O)N[C@@H](Cc1cnc[nH]1)C(=O)O | > 4 mM (inactive)
53 | O=C1N/C(=N\c2ccccn2)SC1Cc1ccccc1 (stereo unspecified) | > 4 mM (inactive)
54 | CC(C)c1c(O)ccc2c1CCC1C(C)(C)CCC[C@]21C (stereo partly specified) | > 4 mM (inactive)
55 | O=C(O)CCn1cncn1 | > 4 mM (inactive)
56 | O=C(O)CN1CCNCC1 | > 4 mM (inactive)
57 | NC(=O)c1cc(N)ccc1N1CCCCC1 | > 4 mM (inactive)
58 | O=C(C1CCNCC1)N1CCCCCC1 | > 4 mM (inactive)
59 | NCc1ccc2c(c1)OCCO2 | > 4 mM (inactive)
60 | CN(C)S(=O)(=O)c1ccc(N2CCOCC2)nc1 | > 4 mM (inactive)
61 | NC(=O)CSc1nc2ccccc2[nH]1 | > 4 mM (inactive)
62 | OCC1CCCN2CCCCC12 (stereo unspecified) | > 4 mM (inactive)
63 | O=S1(=O)CCC(NCCO)C1 (stereo unspecified) | > 4 mM (inactive)
64 | COc1cc(C(=O)O[C@H]2CC[C@@]3(C)[C@@H]4CC[C@H]5[C@]6(O)C[C@H](O)[C@@]7(O)[C@@H](CN8C[C@@H](C)CC[C@H]8[C@@]7(C)O)[C@]6(O)C[C@@]53OC24O)cc(OC)c1OC | > 4 mM (inactive)
65 | c1coc(-c2nc(-c3ccncc3)no2)c1 | > 4 mM (inactive)
66 | Cc1ccc(CNc2ccc(O)cc2)cc1 | > 4 mM (inactive)

Row | Structure (SMILES) | Kd
67 | c1ccc2c(c1)[nH]c1cnccc12 | > 4 mM (inactive)
68 | O=C(O)CNS(=O)(=O)c1cccs1 | > 4 mM (inactive)
69 | O=C(O)C1CSC(c2ccc(Cl)cc2)N1 (stereo unspecified) | > 4 mM (inactive)
70 | N#Cc1cnn2c(C(F)(F)F)cc(C(F)(F)F)nc12 | > 4 mM (inactive)
71 | CCNC(=S)N1CCC(C(N)=O)CC1 | > 4 mM (inactive)
72 | Cn1c(SCc2ccon2)nc2ccccc2c1=O | > 4 mM (inactive)
73 | CC1(C)CC(=O)c2cnn(-c3nc4ccccc4[nH]3)c2C1 | > 4 mM (inactive)
74 | Cc1c(CCO)c(=O)n2c([nH]c3ccccc32)c1C#N | > 4 mM (inactive)
75 | COc1c2ccoc2cc2oc(=O)ccc12 | > 4 mM (inactive)
76 | Cc1n[nH]c(=S)n(/N=C/c2cccs2)c1=O | > 4 mM (inactive)
77 | CC(=O)Nc1cccc(NC(=O)c2ccco2)c1 | > 4 mM (inactive)
78 | O=C(O)CNC(=O)c1ccc([N+](=O)[O-])cc1 | > 4 mM (inactive)
79 | CCOC(=O)CN1C(=O)c2ccccc2C1=O | > 4 mM (inactive)
80 | CC1CCC(N2CCN(c3ncccn3)CC2)CC1 (stereo unspecified) | > 4 mM (inactive)
81 | COC(=O)c1c(C)c2c(c(C)c1O)OC(=O)c1c(C)c(Cl)c(O)c(Cl)c1O2 | > 4 mM (inactive)
82 | CC(=O)Nc1ccc(NC(=O)c2ccnn2C)cc1 | > 4 mM (inactive)
83 | CN(Cc1nc2ccccc2n1C)S(C)(=O)=O | > 4 mM (inactive)
84 | Cc1cccc(-c2nnc(-c3ccc(N)cc3)o2)c1 | > 4 mM (inactive)
85 | Cc1cc(C)nc(N2CC(=O)N(C)C2=N)n1 | > 4 mM (inactive)
86 | NS(=O)(=O)c1ccc(NC(=O)/C=C\C(=O)O)cc1 | > 4 mM (inactive)
